Laboratory results from patent US5436221A, “Tumor metastasis inhibiting compounds and methods” (Fuji Photo Film Co., Ltd., priority 1991, dated 1995).
Numbered stars: 1 amine (or outer) side, 2 acyl side, 3 side chain; on linkers, the order of the positions; unused ones are H or OH. Square brackets hold non-standard residues; d marks the D form. Ends that are not written are not given here. Peptide text beside a SMILES is read from it. * marks the point of attachment. X4 = O=C(O)[C@H]1OC(OCCOCCN*)[C@H](O)[C@@H](O)[C@@H]1O; Suc = O=C(CCC(=O)[*:2])[*:1]

How the values were obtained:
B16-BL6 melanoma cells = experiment: Experimental melanoma metastasis in lungs caused by injection of B16-BL6 melanoma cells; format: in vivo, C57BL/6 female mice
Experimental: The tumor metastasis inhibitory activities of the peptide derivatives of the present invention were examined as follows.
Each of the following peptide derivatives according to the present invention, Compounds 1 to 13, 15, 19 to 22, 25, 32, 36, 37, 44, 47, 50, 56-1, 56-4, 59, 65, 68, 70, 73, 76, 77, 80, 84, 87, 89, 90, 94, 96, 99, 101, 103,106, 112, 114, 118 and 121 was mixed with B16-BL6 melanoma cells having a potent metastatic tendency in PBS so that 0.2 ml of the mixture contained 3000, 1000 or 500 μg of the peptide derivative and 5×10^6 of B16-BL6 melanoma cells. Then, 0.2 ml of each mixture was intravenously administered to each individual of a group of C57BL/6 female mice consisting of 5 mice. Fourteen days after the administration, the number of melanoma cell colony in lungs was determined and compared with that of the control mice, which were administered with PBS.
(§1) For comparison, the peptide fragments known to have tumor metastasis inhibition activity, Arg--Gly--Asp--Ser (SEQ ID NO:16) (Comparison A), Gly--Arg--Gly--Asp--Ser (SEQ ID NO:17) (Comparison B) and (Arg--Gly--Asp)n(n=5) (SEQ ID NO:18) as well as Reference Polymer A were also administered to the mice in the same manner as above.

[1] = system: L5178Y ML25 T-lymphoma cells; experiment: Experimental T-lymphoma metastasis in liver and spleen caused by injection of L5178Y ML25 T-lymphoma cells; format: in vivo, CDF1 (BALB/c×DBA/2) female mice; settings: dose 1000 μg mixed with T-lymphoma cells, i.v., 14 days after; for Weight (g): Average ± SD Spleen: PBS control 0.28 ± 0.03, no tumor cells 0.08 ± 0; for Weight (g): Average ± SD Liver: PBS control 4.21 ± 0.49, no tumor cells 1.09 ± 0.11
Experimental: Separately, each of the following peptide derivatives of the present invention, Compound 1, 2, 8, 12, 20, 47, 56, 59, 67, 73 and 85, was mixed with L5178Y ML25 T-lymphoma cells in PBS so that 0.2 ml of the mixture contained 3000 or 1000 μg of the peptide derivative and 4×10^4 of the T-lymphoma cells. Then, 0.2 ml of each mixture was intravenously administered to each individual of a group of CDF1 (BALB/c×DBA/2) female mice consisting of 5 mice. Fourteen days after the administration, the weights of the livers and the spleens of the mice were determined and compared with those of the control mice.
as §1

[2] = Experiment 7, dose 500 μg, PBS control 85 ± 20
[3] = Experiment 4, dose 500 μg, PBS control 116 ± 19
[4] = Experiment 1, dose 3000 μg mixed with B16-BL6 cells, i.v., lung colonies 14 days after, PBS control 116 ± 27
[5] = Experiment 3, dose 500 μg, lung colonies 14 days after, PBS control 145 ± 30
[6] = Experiment 2, dose 1000 μg mixed with B16-BL6 cells, i.v., lung colonies 14 days after, PBS control 84 ± 11
[7] = Experiment 5, dose 1000 μg, PBS control 91 ± 33
[8] = Experiment 6, dose 500 μg, PBS control 128 ± 24

Succinylated CM-Chitin Carrying --(Arg--D--Leu--Asp--Ser)2 [Compound 112]
Number of Colony Average ± SD (B16-BL6 melanoma cells; [2]): 14 ± 7

Succinylated Pantaethylenehexaamine (β-Ala--Arg--Leu--Asp--Ser--NH--iPr)6 [Compound 77]
Number of Colony Average ± SD (B16-BL6 melanoma cells; [3]): 41 ± 6

Succinylated Polyallylamine Carrying --(Asp--D--Arg--Phe--Asp--Ser)2 [Compound 103]
Number of Colony Average ± SD (B16-BL6 melanoma cells; [2]): 24 ± 8

6-O-Sulfated-Carboxymethyl-N-Acetylchitooligosaccharide Carrying --Asp--Arg--D--Phe--Asp--Ser [Compound 101]
Number of Colony Average ± SD (B16-BL6 melanoma cells; [2]): 13 ± 6

C[C@@H](NC(=O)[C@@H](N)CCCNC(=N)N)C(=O)N[C@@H](CC(=O)O)C(=O)N[C@H](C(N)=O)[C@@H](C)O [Compound 10] (H-R[dA]DT-NH2)
Number of Colony Average ± SD (B16-BL6 melanoma cells; [4]): 58 ± 15

Succinylated CM-Chitin Carrying --Gly--Arg--D--Leu--Asp--Ser [Compound 106]
Number of Colony Average ± SD (B16-BL6 melanoma cells; [2]): 1 ± 1

GRLDS [Compound 15]
Number of Colony Average ± SD (B16-BL6 melanoma cells; [4]): 43 ± 12

Tetrahydrofuran-2,3,4,5-Tetracarboxylic Acid (Arg--Leu--Asp--Ser)4 (RLDS; also: four copies on tetrahydrofuran-2,3,4,5-tetracarboxylic acid core) [Compound 73]
Weight (g): Average ± SD Spleen [1]: 0.15 ± 0.05 g | Weight (g): Average ± SD Liver [1]: 1.95 ± 1.00 g | Number of Colony Average ± SD (B16-BL6 melanoma cells; [3]): 38 ± 7

6-O-Carboxymethyl-N-Acetylchitohexaose Carrying --Asp--Arg--Leu--Asp--Ser [Compound 94]
Number of Colony Average ± SD (B16-BL6 melanoma cells; [2]): 14 ± 3

Succinylated Chondroitin Sulfate Carrying --D--Arg--Phe--Asp--Ser [Compound 118]
Number of Colony Average ± SD (B16-BL6 melanoma cells; [2]): 43 ± 8

R[dL]DR[dL]DR[dL]DR[dL]DR[dL]DR[dL]DR[dL]DR[dL]DR[dL]DR[dL]DR[dL]DR[dL]DR[dL]DR[dL]DR[dL]DR[dL]DR[dL]DR[dL]DR[dL]DR[dL]D [Compound 44]
Number of Colony Average ± SD (B16-BL6 melanoma cells; [5]): 66 ± 15

(Arg--Gly--Asp)n(n=5) [Comparison C]
Number of Colony Average ± SD (B16-BL6 melanoma cells; Experiment 1, dose 1000 μg mixed with B16-BL6 cells, i.v., lung colonies 14 days after, PBS control 116 ± 27): 40 ± 15 | Number of Colony Average ± SD (B16-BL6 melanoma cells; [6]): 23 ± 9 | Number of Colony Average ± SD (B16-BL6 melanoma cells; [5]): 68 ± 9 | Number of Colony Average ± SD (B16-BL6 melanoma cells; [7]): 39 ± 11 | Number of Colony Average ± SD (B16-BL6 melanoma cells; [8]): 57 ± 12 | Number of Colony Average ± SD (B16-BL6 melanoma cells; [2]): 44 ± 16

CC(C)C[C@@H](NC(=O)[C@H](CCCNC(=N)N)NC(=O)[C@H](CO)NC(=O)[C@H](CC(=O)O)NC(=O)[C@@H](CC(C)C)NC(=O)[C@H](CCCNC(=N)N)NC(=O)[C@H](CO)NC(=O)[C@H](CC(=O)O)NC(=O)[C@@H](CC(C)C)NC(=O)[C@H](CCCNC(=N)N)NC(=O)[C@H](CO)NC(=O)[C@H](CC(=O)O)NC(=O)[C@@H](CC(C)C)NC(=O)[C@@H](N)CCCNC(=N)N)C(=O)N[C@@H](CC(=O)O)C(=O)N[C@@H](CO)C(=O)O [Compound 37] (H-R[dL]DSR[dL]DSR[dL]DSR[dL]DS-OH)
Number of Colony Average ± SD (B16-BL6 melanoma cells; [5]): 27 ± 11

Iminodiacetic Acid-Tetracraboxylic Acid Derivative (β-Ala--Arg--Leu--Asp--Ser)4 [Compound 76]
Number of Colony Average ± SD (B16-BL6 melanoma cells; [3]): 48 ± 5

CC(C)C[C@H](NC(=O)[C@@H](N)CCCNC(=N)N)C(=O)N[C@@H](CC(=O)O)C(=O)N[C@@H](CO)C(N)=O [Compound 9] (H-RLDS-NH2)
Number of Colony Average ± SD (B16-BL6 melanoma cells; [4]): 22 ± 10

CC(=O)N[C@@H](CC(=O)O)C(=O)N[C@H](CCCNC(=N)N)C(=O)N[C@@H](CC(C)C)C(=O)N[C@@H](CC(=O)O)C(=O)N[C@@H](CO)C(=O)O [Compound 32] (Ac-D[dR]LDS-OH)
Number of Colony Average ± SD (B16-BL6 melanoma cells; [6]): 24 ± 5

RLDSRLDSRLDSRLDS [Compound 36]
Number of Colony Average ± SD (B16-BL6 melanoma cells; [5]): 46 ± 6

Sulfated CM-Chitin Carrying --Gly--D--Arg--Leu--Asp--Ser [Compound 114]
Number of Colony Average ± SD (B16-BL6 melanoma cells; [2]): 21 ± 11

N=C(N)NCCC[C@H](N)C(=O)NCC(=O)N[C@@H](CC(=O)O)C(=O)N[C@@H](CO)C(=O)O [Comparison A, Arg--Gly--Asp--Ser]
Weight (g): Average ± SD Spleen [1]: 0.22 ± 0.03 g | Weight (g): Average ± SD Liver [1]: 3.67 ± 1.04 g | Number of Colony Average ± SD (B16-BL6 melanoma cells; [4]): 70 ± 8 | Number of Colony Average ± SD (B16-BL6 melanoma cells; [6]): 62 ± 9 | Number of Colony Average ± SD (B16-BL6 melanoma cells; Experiment 3, dose 3000 μg, PBS control 145 ± 30): 92 ± 14 | Number of Colony Average ± SD (B16-BL6 melanoma cells; Experiment 4, dose 3000 μg, PBS control 116 ± 19): 74 ± 11 | Number of Colony Average ± SD (B16-BL6 melanoma cells; Experiment 5, dose 3000 μg, PBS control 91 ± 33): 60 ± 4 | Number of Colony Average ± SD (B16-BL6 melanoma cells; Experiment 6, dose 3000 μg, PBS control 128 ± 24): 88 ± 20 | Number of Colony Average ± SD (B16-BL6 melanoma cells; Experiment 7, dose 3000 μg, PBS control 85 ± 20): 51 ± 6

N=C(N)NCCC[C@H](NC(=O)CN)C(=O)NCC(=O)N[C@@H](CC(=O)O)C(=O)N[C@@H](CO)C(=O)O [Comparison B, Gly--Arg--Gly--Asp--Ser]
Weight (g): Average ± SD Spleen [1]: 0.17 ± 0.03 g | Weight (g): Average ± SD Liver [1]: 2.24 ± 0.46 g | Number of Colony Average ± SD (B16-BL6 melanoma cells; [4]): 50 ± 10 | Number of Colony Average ± SD (B16-BL6 melanoma cells; [6]): 40 ± 10 | Number of Colony Average ± SD (B16-BL6 melanoma cells; Experiment 3, dose 1000 μg, PBS control 145 ± 30): 89 ± 18 | Number of Colony Average ± SD (B16-BL6 melanoma cells; Experiment 4, dose 1000 μg, PBS control 116 ± 19): 78 ± 8 | Number of Colony Average ± SD (B16-BL6 melanoma cells; [7]): 49 ± 7 | Number of Colony Average ± SD (B16-BL6 melanoma cells; Experiment 6, dose 1000 μg, PBS control 128 ± 24): 76 ± 6 | Number of Colony Average ± SD (B16-BL6 melanoma cells; Experiment 7, dose 1000 μg, PBS control 85 ± 20): 50 ± 8

6-O-Carboxymethyl-N-Acetylchitohexaose Carrying --Gly--Arg--Phe--Asp--Ser [Compound 96]
Number of Colony Average ± SD (B16-BL6 melanoma cells; [2]): 9 ± 4

6-O-Sulfated-Carboxymethyl-N-Acetylchitooligosaccharide Carrying --Asp--Arg--D--Leu--Asp--Ser [Compound 99]
Number of Colony Average ± SD (B16-BL6 melanoma cells; [2]): 3 ± 3

Succinyl Derivative of Chondroitin Sulfate Carrying --(Arg--D--Leu--Asp--Ser)2 [Compound 121]
Number of Colony Average ± SD (B16-BL6 melanoma cells; [2]): 45 ± 11

CC(C)C[C@H](NC(=O)[C@H](CCCNC(=N)N)NC(=O)CCC(=O)NCCOCCOC1O[C@H](C(=O)O)[C@@H](O)[C@H](O)[C@H]1O)C(=O)N[C@@H](CC(=O)O)C(=O)N[C@@H](CO)C(=O)O (some centres unmarked) [Compound 80] ({X4-Suc}-RLDS-OH)
Number of Colony Average ± SD (B16-BL6 melanoma cells; [8]): 36 ± 7
